Broadly, the inhibition is the relative decrease from the control value, in per cent.

What all share (conditions): Mutu-3, dose 50.0 nM, time 48.0 hrs
Test [1] has as its target Bromodomain-containing protein 4 (Homo sapiens) (UniProt O60885).
Description: Inhibition of BRD4 in human Mutu-3 cells assessed as decrease in Brd4 association in -40 cp region at 50 nM incubated for 48 hrs by CHIP analysis
The target is the same in test [2]. The source holds these as a separate data set.
Description: Inhibition of BRD4 in human Mutu-3 cells assessed as decrease in Brd4 association in +295 cp region at 50 nM incubated for 48 hrs by CHIP analysis
Test [3] shares this target. This is another data set of the same source.
Description: Inhibition of BRD4 in human Mutu-3 cells assessed as decrease in CDK9 association in -40 cp region at 50 nM incubated for 48 hrs by CHIP analysis
The target is the same in test [4]. This is another data set of the same source.
Description: Inhibition of BRD4 in human Mutu-3 cells assessed as decrease in Cyclin T1 association in -40 cp region at 50 nM incubated for 48 hrs by CHIP analysis
Test [5] shares this target. The source holds these as a separate data set.
Description: Inhibition of BRD4 in human Mutu-3 cells assessed as decrease in Brd4 association in -208 cp region at 50 nM incubated for 48 hrs by CHIP analysis
Test [6] has the same target. This is another data set of the same source.
Description: Inhibition of BRD4 in human Mutu-3 cells assessed as decrease in Cp-initiated EBNA 2 transcription at 50 nM incubated for 48 hrs by Q-PCR analysis relative to control
The target is the same in test [7]. The source holds these as a separate data set.
Description: Inhibition of BRD4 in human Mutu-3 cells assessed as decrease in Cyclin T1 association in +48 cp region at 50 nM incubated for 48 hrs by CHIP analysis
For test [8] the target is unchanged. The source holds these as a separate data set.
Description: Inhibition of BRD4 in human Mutu-3 cells assessed as decrease in Cp-initiated EBNA 1 transcription at 50 nM incubated for 48 hrs by Q-PCR analysis relative to control
For test [9] the target is unchanged. The source holds these as a separate data set.
Description: Inhibition of BRD4 in human Mutu-3 cells assessed as decrease in CDK9 association in -208 cp region at 50 nM incubated for 48 hrs by CHIP analysis
Test [10] shares this target. This is another data set of the same source.
Description: Inhibition of BRD4 in human Mutu-3 cells assessed as decrease in Cyclin T1 association in +295 cp region at 50 nM incubated for 48 hrs by CHIP analysis
Test [11] shares this target. This is another data set of the same source.
Description: Inhibition of BRD4 in human Mutu-3 cells assessed as decrease in Cp-initiated LMP1 transcription at 50 nM incubated for 48 hrs by Q-PCR analysis relative to control
For test [12] the target is unchanged. This is another data set of the same source.
Description: Inhibition of BRD4 in human Mutu-3 cells assessed as decrease in Brd4 association in +48 cp region at 50 nM incubated for 48 hrs by CHIP analysis
Test [13] has the same target. The source holds these as a separate data set.
Description: Inhibition of BRD4 in human Mutu-3 cells assessed as decrease in CDK9 association in +48 cp region at 50 nM incubated for 48 hrs by CHIP analysis
For test [14] the target is unchanged. The source holds these as a separate data set.
Description: Inhibition of BRD4 in human Mutu-3 cells assessed as decrease in CDK9 association in +295 cp region at 50 nM incubated for 48 hrs by CHIP analysis
Test [15] has the same target. The source holds these as a separate data set.
Description: Inhibition of BRD4 in human Mutu-3 cells assessed as decrease in Cyclin T1 association in -208 cp region at 50 nM incubated for 48 hrs by CHIP analysis

SMILES strings stand for the structures. The source made the active and inactive calls. No cut-off for these calls is given here.

As for `Cc1sc2c(c1C)C(c1ccc(Cl)cc1)=N[C@@H](CC(=O)OC(C)(C)C)c1nnc(C)n1-2`, the inhibition entry in [1], in [2], in test [3], in test [4], in test [5] and in test [7] was “Active” each time. Also, the inhibition entry in [9], in [10], in [12], in [13], in test [14] and in test [15] was “Active” each time. Also, the figures for the inhibition in test [6] and in test [8] were 74% and 65%, respectively. The inhibition result in [11] was “inactive”.

These data come from ChEMBL document CHEMBL5712883, “RNA polymerase II stalling promotes nucleosome occlusion and pTEFb recruitment to drive immortalization by Epstein-Barr virus” (PLoS Pathog, 2011).
